Results reported in article PMC9668969 (Nature Communications, 2022).
Where “and” joins values, the source holds several entries; their conditions need not be identical. Equal entries are not always repeated. Where two headings read alike, the source gives them in different places.

Test system: WT ELIC
Assay: Fluorescence stopped-flow liposomal Tl+ flux assay, symmetric liposomes
Type: biochemical, Erwinia chrysanthemi
Design: Tl+ flux quenching rate, Avg. / Tl+ flux quenching rate: unit not given here
Settings: for time constant of activation by Tl+ flux: 10 mM propylamine; for EC50: read-out: EC50 of peak Tl+ flux rate; for Rate (stopped-flow fluorescence quenching rate) / Avg (stopped-flow fluorescence quenching rate): WT in 2:1:1 PC:PE:PG liposomes; for Rate (stopped-flow fluorescence quenching rate): single experiments; for Avg (stopped-flow fluorescence quenching rate): average of experiments
Procedure: The fluorescence sequential-mixing stopped-flow liposomal flux measurements were carried using an SX20 stopped-flow spectrofluorometer (Applied Photophysics) and Pro-Data SX software[13],[30]. 7.5 mg of the respective lipid mixture (POPC, 1:1 POPC: POPE, 1:1 POPC:POPG, 3:1 POPC:POPE, 3:1 POPC:POPG, 2:1:1 POPC:POPE:POPG) was dried in a glass vial to a thin film under a constant stream of N2. The lipids were then further dried under vacuum in a desiccator overnight. The following day the lipids were hydrated in 500 µl of reconstitution buffer (100 mM NaNO3, 10 mM HEPES, pH 7) (Buffer R), 250 µl of 75 mM 8-Aminonaphthalene-1,3,6-Trisulfonic Acid (ANTS, ThermoFisher Scientific) in buffer R, and doped with ~18 mg of CHAPS (Anatrace). The mixture was vortexed and then sonicated with heat until completely solubilized. Following the sonication, the solution was brought to RT then 3.5 µl of 6.7 mg/ml ELIC in Buffer A with 0.02% DDM was added (3 µg per mg of lipid). This combined solution was incubated at RT for 30 min, followed by the addition of 1 ml of 1:1 v/v SM-2 BioBeads in Buffer R and an additional 250 µl of 75 mM ANTS in Buffer R. This mixture was incubated at RT for 2.5 hr with gentle mixing. The liposome suspension was then extruded with an Avanti mini-extruder and 0.1 µm membrane (30×). The extruded liposomes were stored at 13 °C overnight with gentle rotation. The next day, the liposomes were diluted to 2.5 mL using assay buffer (140 mM NaNO3, 10 mM HEPES, pH 7) (Stopped-flow Buffer A), loaded into a PD-10 desalting column (Cytiva), eluted with 3 mL of Stopped-flow Buffer A and subsequently diluted 5-fold with Stopped-flow Buffer A.
Using propylamine as the agonist, the assay and analysis was carried out as previously described[13],[30]. ELIC-containing liposomes were first mixed 1:1 with Buffer A containing 2× the concentration of propylamine. After a variable delay of 10 ms to 25 s, the sample was then mixed 1:1 with a quenching buffer (90 mM NaNO3, 50 mM TlNO3, 10 mM HEPES, pH 7), and ANTS fluorescence (ex. 360 nm, fluorescence above 420 nm) was recorded for 1 s. For each delay time, 5 repeat measurements were obtained. The data were collected using Applied Photophysics Pro-Data SX software. The fluorescence quenching traces were fit to a stretched exponential (Eq. 2a) and the rate of Tl^+ influx was determined at 2 ms (Eq. 2b).2a Ft=F∞+F0−F∞⋅e^−t/τ^β 2b kt=β/τ⋅2ms/τ^(β−1) where Ft, F∞, F0 are the fluorescence at time t, final fluorescence and initial fluorescence. τ is the time constant, β the stretched exponential factor, and kt the calculated rate of Tl^+ influx at 2 ms. The time course of desensitization was also fit to a double exponential and a weighted time constant was calculated as was done for the patch-clamp data using Origin 2019b. All replicates were taken from independent samples.

SMILES: CCCN [propylamine]
- time constant of activation by Tl+ flux (2:1:1 liposomes): 41 ± 34 ms
- time constant of activation by Tl+ flux (POPC liposomes): 20 ± 6 ms
- EC50 (2:1:1 POPC:POPE:POPG liposomes, no BaCl2, Hill fit): 2400 µM and ~2000 µM
- Hill n of peak Tl+ flux dose response (2:1:1 liposomes): 2.2 ± 0.7
- Hill n of peak Tl+ flux dose response (POPC liposomes): 3.6 ± 0.6
- EC50 (POPC liposomes, Hill fit): 4300 ± 1400 µM
- Tl+ flux quenching rate, Avg. (WT 1:1 PC:PE 10 mM PA, delay 0.01 s): 12.8731
- Tl+ flux quenching rate, Avg. (WT 1:1 PC:PE 10 mM PA, delay 0.025 s): 18.7932
- Tl+ flux quenching rate, Avg. (WT 1:1 PC:PE 10 mM PA, delay 0.05 s): 16.1105
- Tl+ flux quenching rate, Avg. (WT 1:1 PC:PE 10 mM PA, delay 0.1 s): 21.9541
- Tl+ flux quenching rate, Avg. (WT 1:1 PC:PE 10 mM PA, delay 0.25 s): 19.0107
- Tl+ flux quenching rate, Avg. (WT 1:1 PC:PE 10 mM PA, delay 0.5 s): 18.8714
- Tl+ flux quenching rate, Avg. (WT 1:1 PC:PE 10 mM PA, delay 1 s): 13.7475
- Tl+ flux quenching rate, Avg. (WT 1:1 PC:PE 10 mM PA, delay 2.5 s): 11.8878
- Tl+ flux quenching rate, Avg. (WT 1:1 PC:PE 10 mM PA, delay 5 s): 9.713
- Tl+ flux quenching rate, Avg. (WT 1:1 PC:PE 10 mM PA, delay 10 s): 6.252
- Tl+ flux quenching rate, Avg. (WT 1:1 PC:PE 10 mM PA, delay 25 s): 0.8964
- Tl+ flux quenching rate, Avg. (WT 1:1 PC:PG 10 mM PA, delay 0.01 s): 3.795
- Tl+ flux quenching rate, Avg. (WT 1:1 PC:PG 10 mM PA, delay 0.025 s): 9.924
- Tl+ flux quenching rate, Avg. (WT 1:1 PC:PG 10 mM PA, delay 0.05 s): 11.1292
- Tl+ flux quenching rate, Avg. (WT 1:1 PC:PG 10 mM PA, delay 0.1 s): 12.6513
- Tl+ flux quenching rate, Avg. (WT 1:1 PC:PG 10 mM PA, delay 0.25 s): 13.2242
- Tl+ flux quenching rate, Avg. (WT 1:1 PC:PG 10 mM PA, delay 0.5 s): 14.1908
- Tl+ flux quenching rate, Avg. (WT 1:1 PC:PG 10 mM PA, delay 1 s): 14.7233
- Tl+ flux quenching rate, Avg. (WT 1:1 PC:PG 10 mM PA, delay 2.5 s): 12.796
- Tl+ flux quenching rate, Avg. (WT 1:1 PC:PG 10 mM PA, delay 5 s): 11.2973
- Tl+ flux quenching rate, Avg. (WT 1:1 PC:PG 10 mM PA, delay 10 s): 8.515
- Tl+ flux quenching rate, Avg. (WT 1:1 PC:PG 10 mM PA, delay 25 s): 1.356
- Tl+ flux quenching rate, Avg. (WT 2:1:1 PC:PE:PG 10 mM PA, delay 0.01 s): 108.066
- Tl+ flux quenching rate, Avg. (WT 2:1:1 PC:PE:PG 10 mM PA, delay 0.025 s): 129.134
- Tl+ flux quenching rate, Avg. (WT 2:1:1 PC:PE:PG 10 mM PA, delay 0.05 s): 140.06
- Tl+ flux quenching rate, Avg. (WT 2:1:1 PC:PE:PG 10 mM PA, delay 0.1 s): 141.696
- Tl+ flux quenching rate, Avg. (WT 2:1:1 PC:PE:PG 10 mM PA, delay 0.25 s): 158.52
- Tl+ flux quenching rate, Avg. (WT 2:1:1 PC:PE:PG 10 mM PA, delay 0.5 s): 169.325
- Tl+ flux quenching rate, Avg. (WT 2:1:1 PC:PE:PG 10 mM PA, delay 1 s): 150.743
- Tl+ flux quenching rate, Avg. (WT 2:1:1 PC:PE:PG 10 mM PA, delay 2.5 s): 114.107
- Tl+ flux quenching rate, Avg. (WT 2:1:1 PC:PE:PG 10 mM PA, delay 5 s): 89.8389
- Tl+ flux quenching rate, Avg. (WT 2:1:1 PC:PE:PG 10 mM PA, delay 10 s): 66.5759
- Tl+ flux quenching rate, Avg. (WT 2:1:1 PC:PE:PG 10 mM PA, delay 25 s): 19.0264
- Tl+ flux quenching rate, Avg. (WT 3:1 PC:PE 10 mM PA, delay 0.01 s): 13.3934
- Tl+ flux quenching rate, Avg. (WT 3:1 PC:PE 10 mM PA, delay 0.025 s): 16.8702
- Tl+ flux quenching rate, Avg. (WT 3:1 PC:PE 10 mM PA, delay 0.05 s): 17.8262
- Tl+ flux quenching rate, Avg. (WT 3:1 PC:PE 10 mM PA, delay 0.1 s): 25.5678
- Tl+ flux quenching rate, Avg. (WT 3:1 PC:PE 10 mM PA, delay 0.25 s): 25.5466
- Tl+ flux quenching rate, Avg. (WT 3:1 PC:PE 10 mM PA, delay 0.5 s): 29.8205
- Tl+ flux quenching rate, Avg. (WT 3:1 PC:PE 10 mM PA, delay 1 s): 23.2733
- Tl+ flux quenching rate, Avg. (WT 3:1 PC:PE 10 mM PA, delay 2.5 s): 17.3881
- Tl+ flux quenching rate, Avg. (WT 3:1 PC:PE 10 mM PA, delay 5 s): 8.6052
- Tl+ flux quenching rate, Avg. (WT 3:1 PC:PE 10 mM PA, delay 10 s): 3.015
- Tl+ flux quenching rate, Avg. (WT 3:1 PC:PE 10 mM PA, delay 25 s): 0.5341
- Tl+ flux quenching rate, Avg. (WT 3:1 PC:PG 10 mM PA, delay 0.01 s): 3.538
- Tl+ flux quenching rate, Avg. (WT 3:1 PC:PG 10 mM PA, delay 0.025 s): 5.637
- Tl+ flux quenching rate, Avg. (WT 3:1 PC:PG 10 mM PA, delay 0.05 s): 6.577
- Tl+ flux quenching rate, Avg. (WT 3:1 PC:PG 10 mM PA, delay 0.1 s): 5.156
- Tl+ flux quenching rate, Avg. (WT 3:1 PC:PG 10 mM PA, delay 0.25 s): 10.2935
- Tl+ flux quenching rate, Avg. (WT 3:1 PC:PG 10 mM PA, delay 0.5 s): 10.5897
- Tl+ flux quenching rate, Avg. (WT 3:1 PC:PG 10 mM PA, delay 1 s): 10.9346
- Tl+ flux quenching rate, Avg. (WT 3:1 PC:PG 10 mM PA, delay 2.5 s): 9.589
- Tl+ flux quenching rate, Avg. (WT 3:1 PC:PG 10 mM PA, delay 5 s): 8.149
- Tl+ flux quenching rate, Avg. (WT 3:1 PC:PG 10 mM PA, delay 10 s): 1.496
- Tl+ flux quenching rate, Avg. (WT 3:1 PC:PG 10 mM PA, delay 25 s): 1.028
- Tl+ flux quenching rate, Avg. (WT PC 10 mM PA, delay 0.01 s): 3.242
- Tl+ flux quenching rate, Avg. (WT PC 10 mM PA, delay 0.025 s): 7.793
- Tl+ flux quenching rate, Avg. (WT PC 10 mM PA, delay 0.05 s): 10.0904
- Tl+ flux quenching rate, Avg. (WT PC 10 mM PA, delay 0.1 s): 10.8806
- Tl+ flux quenching rate, Avg. (WT PC 10 mM PA, delay 0.25 s): 11.6946
- Tl+ flux quenching rate, Avg. (WT PC 10 mM PA, delay 1 s): 9.9293
- Tl+ flux quenching rate, Avg. (WT PC 10 mM PA, delay 2.5 s): 4.516
- Tl+ flux quenching rate, Avg. (WT PC 10 mM PA, delay 5 s): 0.8684
- Tl+ flux quenching rate, Avg. (WT PC 10 mM PA, delay 10 s): 0.09487
- Tl+ flux quenching rate, Avg. (WT PC 10 mM PA, delay 25 s): 0.1384
- Tl+ flux quenching rate, Avg. (WT PC 10 mM PA, delay printed 0.05 (line r87, between 0.25 and 1)): 13.718
- Rate (stopped-flow fluorescence quenching rate) (0.3 mM PA, delay time 0): 0
- Avg (stopped-flow fluorescence quenching rate) (0.3 mM PA, delay time 0.025): 0.05393
- Avg (stopped-flow fluorescence quenching rate) (0.3 mM PA, delay time 0.05): 0.1144
- Avg (stopped-flow fluorescence quenching rate) (0.3 mM PA, delay time 0.1): 0.02985
- Rate (stopped-flow fluorescence quenching rate) (0.3 mM PA, delay time 0.1, listed as PA): 0.02819 and 0.02444 and 0.03693
- Avg (stopped-flow fluorescence quenching rate) (0.3 mM PA, delay time 0.25): 0.2226
- Avg (stopped-flow fluorescence quenching rate) (0.3 mM PA, delay time 0.5): 0.07829
- Rate (stopped-flow fluorescence quenching rate) (0.3 mM PA, delay time 0.5, listed as PA): 0.05209 and 0.08034 and 0.1024
- Avg (stopped-flow fluorescence quenching rate) (0.3 mM PA, delay time 1): 0.1269
- Avg (stopped-flow fluorescence quenching rate) (0.3 mM PA, delay time 2.5): 0.07966
- Avg (stopped-flow fluorescence quenching rate) (0.3 mM PA, delay time 5): 0.1012
- Avg (stopped-flow fluorescence quenching rate) (0.3 mM PA, delay time 10): 0.07302
- Avg (stopped-flow fluorescence quenching rate) (0.3 mM PA, delay time 25): 0.144
- Rate (stopped-flow fluorescence quenching rate) (0.3 mM PA, delay time 25, listed as PA): 0.1101 and 0.1736 and 0.1484
- Rate (stopped-flow fluorescence quenching rate) (1 mM PA, delay time 0): 0
- Avg (stopped-flow fluorescence quenching rate) (1 mM PA, delay time 0.025): 0.05821
- Avg (stopped-flow fluorescence quenching rate) (1 mM PA, delay time 0.05): 0.3418
- Avg (stopped-flow fluorescence quenching rate) (1 mM PA, delay time 0.1): 0.7543
- Avg (stopped-flow fluorescence quenching rate) (1 mM PA, delay time 0.25): 9.601
- Avg (stopped-flow fluorescence quenching rate) (1 mM PA, delay time 0.5): 9.433
- Avg (stopped-flow fluorescence quenching rate) (1 mM PA, delay time 1): 13.1765
- Avg (stopped-flow fluorescence quenching rate) (1 mM PA, delay time 2.5): 13.927
- Avg (stopped-flow fluorescence quenching rate) (1 mM PA, delay time 5): 16.0207
- Avg (stopped-flow fluorescence quenching rate) (1 mM PA, delay time 10): 13.7137
- Avg (stopped-flow fluorescence quenching rate) (1 mM PA, delay time 25): 8.387
- Rate (stopped-flow fluorescence quenching rate) (3 mM PA, delay time 0): 0
- Avg (stopped-flow fluorescence quenching rate) (3 mM PA, delay time 0.05): 279.785
- Avg (stopped-flow fluorescence quenching rate) (3 mM PA, delay time 0.1): 279.666
- Avg (stopped-flow fluorescence quenching rate) (3 mM PA, delay time 0.25): 300.719
- Avg (stopped-flow fluorescence quenching rate) (3 mM PA, delay time 0.5): 352.59
- Avg (stopped-flow fluorescence quenching rate) (3 mM PA, delay time 1): 284.973
- Avg (stopped-flow fluorescence quenching rate) (3 mM PA, delay time 2.5): 176.344
